# Reference: US8987250B2 (Gilead Sciences, Inc., priority 2012, dated 2015)
# pEC50: −log10 of the molar value.
# Test system: HIV-IIIb
# Assay: Test A: Antiviral Assay in MT4 Cells
# Assay type: cell-based
# Conditions: Human immunodeficiency virus 1, IIIB, MT4, 120 h
# In short: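 Read-out: CellTiter-Glo chemiluminescence after 5-day incubation at 37 °C. Compounds tested as 3-fold serial dilutions (10 concentrations, quadruplicate) in RPMI 1640 with 10% FBS, on MT-4 cells pre-infected at 37 °C with HIV-IIIb at 0.004 m.o.i.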
row,SMILES,pEC50
1,"Cc1cc2nc(N3CCn4c(nnc4C(F)(F)F)C3)sc2c(-c2ccc(Cl)cc2)c1[C@H](OC(C)(C)C)C(=O)O [Compound 250, (S)-2-tert-butoxy-2-(7-(4-chlorophenyl)-5-methyl-2-(3-(trifluoromethyl)-5,6-dihydro-[1,2,4]triazolo[4,3-a]pyrazin-7(8H)-yl)benzo[d]thiazol-6-yl)acetic acid]",6.63

# Same assay, conditions: Human immunodeficiency virus 1, IIIB, MT4, 120 h, Table 2; MT-4 cells infected with HIV-IIIb, 5 days of incubation, CellTiter-Glo; read-out: EC50
row,SMILES,pEC50
1,"Cc1cc2nc(-c3ccnc(-c4ccc5c(c4)CC(=O)N5C)c3)sc2c(-c2ccc(Cl)cc2)c1[C@H](OC(C)(C)C)C(=O)O [Compound 237, (S)-2-tert-butoxy-2-(7-(4-chlorophenyl)-5-methyl-2-(2-(1-methyl-2-oxoindolin-5-yl)pyridin-4-yl)benzo[d]thiazol-6-yl)acetic acid]",8.00
2,"Cc1cc2nc(-c3ccc4c(c3)CC(=O)N4C)sc2c(-c2ccc(Cl)cc2)c1[C@H](OC(C)(C)C)C(=O)O [Compound 239, (S)-2-tert-butoxy-2-(7-(4-chlorophenyl)-5-methyl-2-(1-methyl-2-oxoindolin-5-yl)benzo[d]thiazol-6-yl)acetic acid]",7.59
3,"Cc1cc2nc(-c3ccc4c(c3)CC(=O)N4)sc2c(-c2ccc(Cl)cc2)c1[C@H](OC(C)(C)C)C(=O)O [Compound 240, (S)-2-tert-butoxy-2-(7-(4-chlorophenyl)-5-methyl-2-(2-oxoindolin-5-yl)benzo[d]thiazol-6-yl)acetic acid]",7.12
4,"Cc1cc2nc(-c3ccnc(N4Cc5ccncc5C4=O)c3)sc2c(-c2ccc(Cl)cc2)c1[C@H](OC(C)(C)C)C(=O)O [Compound 241, (S)-2-tert-butoxy-2-(7-(4-chlorophenyl)-5-methyl-2-(2-(3-oxo-1H-pyrrolo[3,4-c]pyridin-2(3H)-yl)pyridin-4-yl)benzo[d]thiazol-6-yl)acetic acid]",8.52
5,"Cc1ccc2c(c1)CCN2c1nc2cc(C)c([C@H](OC(C)(C)C)C(=O)O)c(-c3ccc(Cl)cc3)c2s1 [Compound 243, (S)-2-tert-butoxy-2-(7-(4-chlorophenyl)-5-methyl-2-(5-methylindolin-1-yl)benzo[d]thiazol-6-yl)acetic acid]",6.37
6,"Cc1cc2nc(-c3ccnc(N4CCc5cnccc54)c3)sc2c(-c2ccc(Cl)cc2)c1[C@H](OC(C)(C)C)C(=O)O [Compound 245, (S)-2-tert-butoxy-2-(7-(4-chlorophenyl)-2-(2-(2,3-dihydro-1H-pyrrolo[3,2-c]pyridin-1-yl)pyridin-4-yl)-5-methylbenzo[d]thiazol-6-yl)acetic acid]",8.05
7,"Cc1cc2nc(-c3nc(N4CCN(C(C)C)CC4)cs3)sc2c(-c2ccc(Cl)cc2)c1[C@H](OC(C)(C)C)C(=O)O [Compound 246, (S)-2-tert-butoxy-2-(7-(4-chlorophenyl)-2-(4-(4-isopropylpiperazin-1-yl)thiazol-2-yl)-5-methylbenzo[d]thiazol-6-yl)acetic acid]",8.05
8,Cc1cc2nc(-c3nc(N4CCN(C)CC4)cs3)sc2c(-c2ccc(Cl)cc2)c1[C@H](OC(C)(C)C)C(=O)O [Compound 247],8.00
9,"Cc1cc2nc(-c3ccc4c(c3)CN(C)C4=O)sc2c(-c2ccc(Cl)cc2)c1[C@H](OC(C)(C)C)C(=O)O [Compound 248, (S)-2-tert-butoxy-2-(7-(4-chlorophenyl)-5-methyl-2-(2-methyl-1-oxoisoindolin-5-yl)benzo[d]thiazol-6-yl)acetic acid]",7.89
10,"Cc1cc2nc(-c3cnc4c(c3)c(-c3cccnc3)cn4C)sc2c(-c2ccc(Cl)cc2)c1[C@H](OC(C)(C)C)C(=O)O [Compound 249, (S)-2-tert-butoxy-2-(7-(4-chlorophenyl)-5-methyl-2-(1-methyl-3-(pyridin-3-yl)-1H-pyrrolo[2,3-b]pyridin-5-yl)benzo[d]thiazol-6-yl)acetic acid]",8.15
11,"Cc1cc2nc(-c3ccc4c(c3)c(C)nn4C)sc2c(-c2ccc(Cl)cc2)c1[C@H](OC(C)(C)C)C(=O)O [Compound 254, (S)-2-tert-butoxy-2-(7-(4-chlorophenyl)-2-(1,3-dimethyl-1H-indazol-5-yl)-5-methylbenzo[d]thiazol-6-yl)acetic acid]",8.10
12,"Cc1cc2nc(-c3cc(-c4ccc5c(c4)c(C)nn5C)nc(N4CCN(C)CC4)c3)sc2c(-c2ccc(Cl)cc2)c1[C@H](OC(C)(C)C)C(=O)O [Compound 255, (S)-2-tert-butoxy-2-(7-(4-chlorophenyl)-2-(2-(1,3-dimethyl-1H-indazol-5-yl)-6-(4-methylpiperazin-1-yl)pyridin-4-yl)-5-methylbenzo[d]thiazol-6-yl)acetic acid]",7.92
13,"Cc1cc2nc(-c3ccc4c(c3)C(C)(C)C(=O)N4C)sc2c(-c2ccc(Cl)cc2)c1[C@H](OC(C)(C)C)C(=O)O [Compound 256, (S)-2-tert-butoxy-2-(7-(4-chlorophenyl)-5-methyl-2-(1,3,3-trimethyl-2-oxoindolin-5-yl)benzo[d]thiazol-6-yl)acetic acid]",8.05
14,"Cc1cc2nc(-c3ccc4c(c3)c(N(C)C)nn4C)sc2c(-c2ccc(Cl)cc2)c1[C@H](OC(C)(C)C)C(=O)O [Compound 258, (S)-2-tert-butoxy-2-(7-(4-chlorophenyl)-2-(3-(dimethylamino)-1-methyl-1H-indazol-5-yl)-5-methylbenzo[d]thiazol-6-yl)acetic acid]",7.89
15,"Cc1cc2nc(-c3ccc4c(N5CCN(C)CC5)nn(C)c4c3)sc2c(-c2ccc(Cl)cc2)c1[C@H](OC(C)(C)C)C(=O)O [Compound 259, (S)-2-tert-butoxy-2-(7-(4-chlorophenyl)-5-methyl-2-(1-methyl-3-(4-methylpiperazin-1-yl)-1H-indazol-6-yl)benzo[d]thiazol-6-yl)acetic acid]",7.92
16,"Cc1cc2nc(-c3ccc4c(c3)c(C3CC3)nn4C)sc2c(-c2ccc(Cl)cc2)c1[C@H](OC(C)(C)C)C(=O)O [Compound 264, (S)-2-tert-butoxy-2-(7-(4-chlorophenyl)-2-(3-cyclopropyl-1-methyl-1H-indazol-5-yl)-5-methylbenzo[d]thiazol-6-yl)acetic acid]",7.77
17,"Cc1cc2nc(-c3ccc4nn(C)c(C)c4c3)sc2c(-c2ccc(Cl)cc2)c1[C@H](OC(C)(C)C)C(=O)O [Compound 265, (S)-2-tert-butoxy-2-(7-(4-chlorophenyl)-2-(2,3-dimethyl-2H-indazol-5-yl)-5-methylbenzo[d]thiazol-6-yl)acetic acid]",7.82
18,"Cc1cc2nc(-c3ccc4c(N)nn(C)c4c3)sc2c(-c2ccc(Cl)cc2)c1[C@H](OC(C)(C)C)C(=O)O [Compound 266, (S)-2-(2-(3-amino-1-methyl-1H-indazol-6-yl)-7-(4-chlorophenyl)-5-methylbenzo[d]thiazol-6-yl)-2-tert-butoxyacetic acid]",8.00
19,"Cc1cc2nc(-c3ccc4c(C5CCN(C)CC5)nn(C)c4c3)sc2c(-c2ccc(Cl)cc2)c1[C@H](OC(C)(C)C)C(=O)O [Compound 267, (S)-2-tert-butoxy-2-(7-(4-chlorophenyl)-5-methyl-2-(1-methyl-3-(1-methylpiperidin-4-yl)-1H-indazol-6-yl)benzo[d]thiazol-6-yl)acetic acid]",7.96
20,"Cc1cc2nc(-c3ccc4c(c3)c(C3CCN(C)CC3)nn4C)sc2c(-c2ccc(Cl)cc2)c1[C@H](OC(C)(C)C)C(=O)O [Compound 268, (S)-2-tert-butoxy-2-(7-(4-chlorophenyl)-5-methyl-2-(1-methyl-3-(1-methylpiperidin-4-yl)-1H-indazol-5-yl)benzo[d]thiazol-6-yl)acetic acid]",7.92
21,"Cc1cc2nc(-c3ccc4c(c3)c(N3CCN(C(C)C)CC3)nn4C)sc2c(-c2ccc(Cl)cc2)c1[C@H](OC(C)(C)C)C(=O)O [Compound 269, (S)-2-tert-butoxy-2-(7-(4-chlorophenyl)-2-(3-(4-isopropylpiperazin-1-yl)-1-methyl-1H-indazol-5-yl)-5-methylbenzo[d]thiazol-6-yl)acetic acid]",7.92
22,"Cc1cc(C)n(-c2cccc(-c3nc4cc(C)c([C@H](OC(C)(C)C)C(=O)O)c(-c5ccc(Cl)cc5)c4s3)c2)n1 [Compound 272, (S)-2-tert-butoxy-2-(7-(4-chlorophenyl)-2-(3-(3,5-dimethyl-1H-pyrazol-1-yl)phenyl)-5-methylbenzo[d]thiazol-6-yl)acetic acid]",7.11
23,"Cc1cc2nc(-n3ccnc(-c4ccc5c(cnn5C)c4)c3=O)sc2c(-c2ccc(Cl)cc2)c1[C@H](OC(C)(C)C)C(=O)O [Compound 273, (S)-2-tert-butoxy-2-(7-(4-chlorophenyl)-5-methyl-2-(3-(1-methyl-1H-indazol-5-yl)-2-oxopyrazin-1(2H)-yl)benzo[d]thiazol-6-yl)acetic acid]",7.28
24,"Cc1cc2nc(N3CCN(C)C(c4ccc5c(cnn5C)c4)C3=O)sc2c(-c2ccc(Cl)cc2)c1[C@H](OC(C)(C)C)C(=O)O (stereo partly drawn) [Compound 274, (2S)-2-tert-butoxy-2-(7-(4-chlorophenyl)-5-methyl-2-(4-methyl-3-(1-methyl-1H-indazol-5-yl)-2-oxopiperazin-1-yl)benzo[d]thiazol-6-yl)acetic acid]",7.51
25,"Cc1cc2nc(N3CCNC(c4ccc5c(cnn5C)c4)C3=O)sc2c(-c2ccc(Cl)cc2)c1[C@H](OC(C)(C)C)C(=O)O (stereo partly drawn) [Compound 275, (2S)-2-tert-butoxy-2-(7-(4-chlorophenyl)-5-methyl-2-(3-(1-methyl-1H-indazol-5-yl)-2-oxopiperazin-1-yl)benzo[d]thiazol-6-yl)acetic acid]",7.68
26,"Cc1cc2nc(N3CCN(C(=O)OC(C)(C)C)C(c4ccc5c(cnn5C)c4)C3)sc2c(-c2ccc(Cl)cc2)c1[C@H](OC(C)(C)C)C(=O)O (stereo partly drawn) [Compound 276, (2S)-2-tert-butoxy-2-(2-(4-(tert-butoxycarbonyl)-3-(1-methyl-1H-indazol-5-yl)piperazin-1-yl)-7-(4-chlorophenyl)-5-methylbenzo[d]thiazol-6-yl)acetic acid]",7.43
